Data from US20250186411A1, “Methods of Treating Disorders Associated with Overactivation of IKKB” (The United States Government as represented by the …, priority 2023, published 2025).

What was measured:
IKKβ [1] = biological target: T1, IKKβ (Homo sapiens, UniProt O14920); experiment: Thermal shift assay; conditions: BT503 1 μM, human podocytes
Protocol: Each tube was treated at a range of temperatures (40° C. to 52° C.) for 3 minutes using Eppendorf Mastercycler gradient temperature setting. Protein was subsequently extracted from cells using freeze-thaw cycle, and IKKβ and β-actin were detected using western blot.

IKKβ [2] = biological target: T1, IKKβ
Protocol: (§2) After the kinase reaction, an equal volume of ADP-Go™ Reagent is added to both terminate the kinase reaction and deplete the remaining ATP. Subsequently, the Detection Reagent is added to simultaneously convert ADP to ATP and measure the concentrations of newly synthesized ATP using a luciferase/luciferin reaction. The light generated is measured using a 96-well plate reader SpectraMax M3 (Molecular Devices). Luminescence can be correlated to ADP concentrations by using an ATP-to-ADP conversion curve.

FVB/n mice = experiment: LPS-induced proteinuric murine model; type: in vivo, mouse
Protocol: In the LPS-induced proteinuric model, all 8-week-old FVB/n mice were initially treated with LPS [intraperitoneal (IP), 10 μg/g, Sigma-Aldrich] or sterile normal saline (IP) at 0- and 24-hour time points as previously described (17). […] Urine was collected and mice were euthanized 48 hours post-LPS treatment.
Urine albumin was quantified by ELISA using a kit from Bethyl Laboratory Inc. Urine creatinine levels were measured in the same samples using the Creatinine Colorimetric Assay Kit (500701; Cayman Chemical) as per manufacturer's protocol.
Briefly, mice were perfused with PBS containing 2.5 mg/ml iron oxide and 1% BSA. At the end of perfusion, kidneys were removed, decapsulated, minced into 1 mm^3 pieces, and digested in PBS containing 1 mg/ml collagenase A. Digested tissue was subsequently passed through a 100 μm cell strainer and collected by centrifugation. The pellet was resuspended in 1 ml PBS and glomeruli were collected using a magnet. The purity of glomeruli was verified under microscopy. Total RNA was isolated from kidney glomeruli of mice using the RNeasy Kit (Qiagen, Germantown, MD).
Total RNA from cells was extracted by using TRIzol (Life Technologies). First-strand cDNA was prepared from total RNA (up to 1.25 μg) using the SuperScript™ IV VILO™ Master Mix (Life Technologies), and cDNA was amplified in triplicate using PowerUp™ SYBR™ Green Master Mix on an ABI QuantStudio3 (Applied Biosystems). Primers for human and mouse genes were designed using NCBI Primer-BLAST and validated for efficiency before application (Table 1). Data were normalized to housekeeping genes (GAPDH or ACTB) and presented as a fold increase compared with RNA isolated from the control group using the ΔΔCT method.
Transmission Electron Microscopy (TEM) was done in the Central Microscopy Imaging Center at Stony Brook Medicine. Briefly, after embedding the kidney tissues in epoxy resin, ultrathin sections were stained with uranyl acetate and lead citrate, then mounted on a copper grid, and photographed under a FEI BioTwin G2 Transmission Electron Microscope with AMT XR-60 CCD digital Camera (FEI).

[3] = test system: KLF15 promoter (pEZX-FR03hKLF15p human podocytes); experiment: KLF15 reporter high-throughput screening assay in human podocytes (firefly/renilla luciferase); type: cell-based
Protocol: Briefly, these podocytes proliferate under permissive conditions (gamma interferon at 33° C.), but differentiate under nonpermissive conditions (37° C.).
The amplified fragment contains MluI and PmeI RE sites and was subcloned into the MluI and PmeI cloning site of the pEZX-FR03 Firefly luciferase (FLuc) and Renilla luciferase (Rluc) reporter cloning vector (GeneCopoeia) to generate pEZX-FR03hKLF15p. Following verification of the sequence by restriction and μsequencing, the pEZX-FR03hKLF15p construct (which contains a puromycin resistance cassette) was transfected into human podocytes followed by selection in puromycin-containing media for 2 weeks. Surviving podocytes clones were pooled together for further analysis.
The library of compounds from the National Cancer Institute (Approved Oncology Drugs Set VI; Natural Products Set III; Diversity Set V; and Mechanistic Diversity Set II) were added to a final concentration of 1 μM in 0.5% DMSO in the low FBS cell culture media (0.2% FBS) using liquid handling system PipetMax (Gilson). After 24 hours incubation at 37° C., the Luc-Pair™ Duo-Luciferase HT Assay Kit (GeneCopoeia LF015) were used and firefly and renilla luciferase activity was determined using the SpectraMax M3 (Molecular Devices). Positive controls were all-trans retinoic acid (atRA) (1 μM) and dexamethasone (DEX) (1 μM). Negative controls were DMSO and cell-free media.
To identify small molecule inducers of KLF15 expression in human podocytes, human podocytes were generated with a dual reporter, firefly luciferase directed at the KLF15 promoter region and renilla luciferase (pEZX-FR03hKLF15p). […] The positive controls were inducers of KLF15 expression, dexamethasone (DEX) and all-trans retinoic acid (atRA), and […] and cell-free wells served as negative controls.

[4] = test system: differentiated human podocytes; experiment: Oxygen consumption rate and extracellular acidification rate (Seahorse XFe96); type: cell-based
Protocol: Subsequently, basal OCR, maximal respiration, ATP-linked respiration, and spare respiratory capacity were determined in the presence of oligomycin, carbonyl cyanide-p-trifluoromethoxyphenylhydrazone (FCCP), and rotenone/antimycin A. All OCR measurements were normalized for the number of cells per well using CyQuant reagent (Life Technologies).

IKBKB^M96V mutant = IKBKB^M96V mutant (Homo sapiens, UniProt O14920, M96V)
Sequence of IKBKB^M96V mutant (O14920 whole entry M96V): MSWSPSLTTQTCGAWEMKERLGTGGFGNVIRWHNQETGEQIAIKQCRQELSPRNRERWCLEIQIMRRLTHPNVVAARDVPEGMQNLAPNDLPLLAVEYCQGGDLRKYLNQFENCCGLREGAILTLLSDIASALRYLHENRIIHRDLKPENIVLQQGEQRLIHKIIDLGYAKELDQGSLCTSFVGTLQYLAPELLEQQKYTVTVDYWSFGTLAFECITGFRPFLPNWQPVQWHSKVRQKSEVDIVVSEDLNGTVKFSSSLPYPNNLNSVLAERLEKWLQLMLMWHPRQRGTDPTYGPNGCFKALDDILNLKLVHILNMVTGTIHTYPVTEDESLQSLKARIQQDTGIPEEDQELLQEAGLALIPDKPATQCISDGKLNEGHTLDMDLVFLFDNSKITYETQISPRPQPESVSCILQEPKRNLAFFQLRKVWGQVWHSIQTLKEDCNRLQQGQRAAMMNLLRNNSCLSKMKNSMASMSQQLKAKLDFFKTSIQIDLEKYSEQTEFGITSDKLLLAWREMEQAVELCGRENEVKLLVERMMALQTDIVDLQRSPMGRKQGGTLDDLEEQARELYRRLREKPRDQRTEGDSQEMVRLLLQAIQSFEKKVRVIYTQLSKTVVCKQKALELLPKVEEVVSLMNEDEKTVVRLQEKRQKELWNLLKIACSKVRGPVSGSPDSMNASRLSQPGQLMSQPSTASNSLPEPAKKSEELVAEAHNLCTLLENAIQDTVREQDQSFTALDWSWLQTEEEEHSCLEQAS
Protocol: as §2

[5] = test system: KLF15 promoter (pEZX-FR03hKLF5p human podocytes); experiment: Lipopolysaccharide treatment in human podocytes, KLF15 reporter activity; type: cell-based; conditions: as compared to DMSO
Protocol: (§1) Differentiated pEZX-FR03hKLF5p human podocytes were treated with 25 μg/ml lipopolysaccharide (LPS) or vehicle and 1 μM KLF15 agonist or vehicle control for 24 hours. Firefly and renilla luciferase assay were measured initially to determine relative KLF15 reporter activity.

human podocytes = experiment: Cell viability of podocytes (renilla activity, MTS assay); type: cell-based
Protocol: as §1
Differentiated pEZX-FR03hKLF5p human podocytes were treated with 0.4 μg/ml adriamycin (ADR) or vehicle and 1 μM KLF15 agonist or vehicle control for 24 hours. Firefly and renilla luciferase assay were measured initially to determine relative KLF15 reporter activity.
To assess cell viability, the CellTiter 96® AQueous One Solution Reagent (Promega) was added to the culture media and plates were incubated for 2 hours at 37° C. with 5% CO2.

[6] = biological target: hERG Human Potassium Ion Channel (Homo sapiens, UniProt Q12809); experiment: hERG Human Potassium Ion Channel Cell Based QPatch CiPA Assay
Sequence of hERG Human Potassium Ion Channel (Q12809 whole entry): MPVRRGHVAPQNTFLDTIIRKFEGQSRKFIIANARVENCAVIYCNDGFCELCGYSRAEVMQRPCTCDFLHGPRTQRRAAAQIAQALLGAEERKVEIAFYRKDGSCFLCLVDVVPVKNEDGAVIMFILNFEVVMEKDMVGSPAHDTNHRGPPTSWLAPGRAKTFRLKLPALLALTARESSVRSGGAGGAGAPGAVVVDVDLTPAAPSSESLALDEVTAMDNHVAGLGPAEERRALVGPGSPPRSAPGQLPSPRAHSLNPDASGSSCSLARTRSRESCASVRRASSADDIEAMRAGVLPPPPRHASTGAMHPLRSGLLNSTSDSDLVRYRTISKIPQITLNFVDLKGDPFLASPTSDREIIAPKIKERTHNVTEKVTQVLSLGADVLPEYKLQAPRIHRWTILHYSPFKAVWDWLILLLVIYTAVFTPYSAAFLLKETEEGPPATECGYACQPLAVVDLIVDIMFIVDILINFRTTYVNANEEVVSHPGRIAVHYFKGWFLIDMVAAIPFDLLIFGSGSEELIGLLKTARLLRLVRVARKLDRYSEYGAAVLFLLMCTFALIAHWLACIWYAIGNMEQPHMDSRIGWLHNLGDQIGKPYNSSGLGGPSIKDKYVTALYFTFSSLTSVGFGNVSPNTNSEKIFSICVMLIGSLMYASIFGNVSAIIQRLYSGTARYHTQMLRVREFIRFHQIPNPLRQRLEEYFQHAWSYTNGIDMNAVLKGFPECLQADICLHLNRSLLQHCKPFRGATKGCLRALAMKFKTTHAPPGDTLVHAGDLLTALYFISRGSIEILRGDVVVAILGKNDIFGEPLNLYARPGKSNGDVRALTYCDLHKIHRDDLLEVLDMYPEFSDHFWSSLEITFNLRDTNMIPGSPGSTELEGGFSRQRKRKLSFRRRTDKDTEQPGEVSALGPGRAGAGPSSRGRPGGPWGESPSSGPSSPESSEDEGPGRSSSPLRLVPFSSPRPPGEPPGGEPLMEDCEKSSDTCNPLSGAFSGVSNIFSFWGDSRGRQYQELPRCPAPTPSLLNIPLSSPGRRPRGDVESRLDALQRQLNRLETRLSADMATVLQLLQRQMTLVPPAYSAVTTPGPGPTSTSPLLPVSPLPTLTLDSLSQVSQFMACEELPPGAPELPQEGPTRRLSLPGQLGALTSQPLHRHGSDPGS
Excerpt: A 500 ms pulse to −40 mV is delivered to measure the leaking current, which is subtracted from the tail current on-line. The cell is subsequently depolarized to +40 mV for 500 ms and then to −80 mV over a 100 ms ramp to elicit the hERG tail current. The parameters measured were the maximum tail current evoked on stepping to 40 mV and ramping back to −80 mV from the test pulse. All data were filtered for seal quality, seal drop, and current amplitude.

mice = conditions: as compared to DMSO treatment
Excerpt: Serum was subsequently collected and mice were euthanized for collection of kidney, liver, and heart tissue.

T1 sequence (O14920 whole entry): as the sequence (O14920 whole entry M96V) above, with V96M counted along it

CSc1ccc(NC(=O)Nc2ccc(C)nc2)cc1 [BT503]
IKKβ stability (thermal shift) (IKKβ [1]): IKKβ stability was reduced in DMSO as compared to BT503 treatment
inhibition of kinase activity at higher ATP concentrations (IKKβ [2]; ATP 50 μM): mitigated
IC50 (IKKβ [2]; read-out: IC50 (IKKβ kinase activity), IKBKB^WT): 163 nM
Glomerular Klf15 and Wilms Tumor 1 (Wt1) expression (FVB/n mice; LPS conditions, vs DMSO-treated mice): restored
albuminuria (FVB/n mice; LPS proteinuric murine model, concurrent treatment, vs DMSO): attenuated albuminuria
foot process effacement (podocyte injury) (FVB/n mice; LPS treatment): significantly restored
KLF15 activity as compared to DEX-treated podocytes [3]: higher KLF15 activity
KLF15 activity under nonpermissive versus permissive conditions ([3]; 37 C vs 33 C): only induces KLF15 activity under nonpermissive (37 C) conditions
basal respiration, maximal respiration, ATP-linked respiration, and spare respiratory capacity ([4]; 3-10 μM): No significant differences
oxygen consumption rate (OCR) and extracellular acidification rate (ECAR) ([4]; as compared to DMSO or DEX): no significant differences
IKKβ kinase inhibition in IKBKB^M96V mutant as compared to IKBKB^WT (IKBKB^M96V mutant): resistance to IKKβ kinase inhibition
KLF15 activity in the setting of LPS treatment [5]: maintained the elevated KLF15 activity
toxicity to human podocytes (human podocytes; analogue screen): no observed toxicity
renilla activity (cell viability) in the setting of LPS treatment (human podocytes; as compared to DMSO-treated podocytes): restored renilla activity
% inhibition mean ([6]; 3 μM): 1.20%
% inhibition n1 ([6]; 3 μM): −2.01%
% inhibition n2 ([6]; 3 μM): 4.41%
% inhibition mean ([6]; 10 μM): 6.25%
% inhibition n1 ([6]; 10 μM): −0.08%
% inhibition n2 ([6]; 10 μM): 12.57%
hERG inhibition ([6]; 3-10 μM, as compared to positive control): low inhibition
aspartate aminotransferase (AST), alanine transaminase (ALT) levels (mice): no significant difference
histological changes in the kidney, heart, and liver tissue (mice): no significant difference
